Blank lines part the entries; values can stand above or below the compound they belong to. The source made the active and inactive calls. No cut-off for these calls is given here.
Tests used:
Mus musculus [1] = experiment: Induction of G-CSF production in C57BL/6J mouse model at 100 mg/kg, ip measured for 24 hrs by ELISA analysis; format: functional, organism-based
Mus musculus [2] = experiment: Induction of G-CSF production in C57BL/6J mouse model at 100 mg/kg, sc measured for 24 hrs by ELISA analysis; format: functional, organism-based
Mus musculus [3] = experiment: Radioprotective activity in C57BL/6J mouse assessed as survival rate at 100 mg/kg, sc preincubated with compound for 24 hrs followed by total body irradiation with 8.5 Gy and measured after 20 days by Kaplan-meier plot analysis; format: functional; conditions: light or radiation study, 504 h, time 21 day
Mus musculus [4] = experiment: Radioprotective activity in C57BL/6J mouse assessed as survival rate at 100 mg/kg, sc preincubated with compound for 24 hrs followed by total body irradiation with 8.5 Gy and measured after 30 days by Kaplan-meier plot analysis; format: functional; conditions: time 31 day; for survival at 100 mg/kg: Mus musculus, C57BL/6J, light or radiation study, 744 h
[5] = Stability in C57BL/6J mouse whole blood assessed as half-life; format: ADME, tissue-based
[6] = Stability in C57BL/6J mouse plasma assessed as half-life; format: ADME, cell-free
[7] = Stability in […] human plasma assessed as half-life; format: ADME, cell-free

Compound: Cc1c(C)c2c(c(C)c1O)CC[C@@](C)(CCCC(C)CCCC(C)CCCC(C)C)O2 (some centres undefined)
- Activity (Mus musculus [1]): inactive

Compound: CC(C)=CCC/C(C)=C/CC/C(C)=C/CC[C@]1(C)CCc2cc(OCC(C)(C)C(=O)O)cc(C)c2O1
- Activity (Mus musculus [2]): Active

Compound: CC(C)=CCC/C(C)=C/CC/C(C)=C/CC[C@]1(C)CCc2cc(OCC(C)(C)CO)cc(C)c2O1
- Activity (Mus musculus [2]): Active

Compound: CC(C)=CCC/C(C)=C/CC/C(C)=C/CC[C@]1(C)CCc2cc(OC(=O)Cc3cccnc3)cc(C)c2O1
- Activity (Mus musculus [2]): Active

Compound: CC(C)=CCC/C(C)=C/CC/C(C)=C/CC[C@]1(C)CCc2cc(OC(=O)c3ccccn3)cc(C)c2O1
- Activity (Mus musculus [2]): Active

Compound: CC(C)=CCC/C(C)=C/CC/C(C)=C/CC[C@]1(C)CCc2cc(OCCCCO)cc(C)c2O1
- Activity (Mus musculus [2]): Active

Compound: CC(=O)Oc1cc(C)c2c(c1)CC[C@@](C)(CC/C=C(\C)CC/C=C(\C)CCC=C(C)C)O2
- Activity (Mus musculus [2]): Active

Compound: CC(C)=CCC/C(C)=C/CC/C(C)=C/CC[C@]1(C)CCc2cc(OC(=O)C3CCNCC3)cc(C)c2O1
- Activity (Mus musculus [2]): Active
- survival at 100 mg/kg (Mus musculus [3]): 70%
- survival at 100 mg/kg (Mus musculus [4]): 70%

Compound: CC(C)=CCC/C(C)=C/CC/C(C)=C/CC[C@]1(C)CCc2cc(OCCCC(=O)O)cc(C)c2O1
- Activity (Mus musculus [2]): Active

- half-life [5]: 30.3 min
Compound: COC(=O)CCC(=O)Oc1cc(C)c2c(c1)CC[C@@](C)(CC/C=C(\C)CC/C=C(\C)CCC=C(C)C)O2

Compound: CC(C)=CCC/C(C)=C/CC/C(C)=C/CC[C@]1(C)CCc2cc(OC(=O)CCCCCC(=O)O)cc(C)c2O1
- Activity (Mus musculus [2]): Active
- survival at 100 mg/kg (Mus musculus [3]): 70%
- survival at 100 mg/kg (Mus musculus [4]): 90%
- half-life [5]: 8.6 min

Compound: CC(C)=CCC/C(C)=C/CC/C(C)=C/CC[C@]1(C)CCc2c(C)c(O)c(C)c(C)c2O1
- Activity (Mus musculus [1]): inactive

- half-life [5]: 12.3 min
- half-life [6]: 13.2 min
- half-life [7]: 0.7 min
Compound: CCN(CC)CCOC(=O)c1ccc(N)cc1 [PROCAINE]

Compound: CC(C)=CCC/C(C)=C/CC/C(C)=C/CC[C@]1(C)CCc2cc(OC(=O)CCCC(=O)O)cc(C)c2O1
- Activity (Mus musculus [2]): Active
- survival at 100 mg/kg (Mus musculus [3]): 70%
- half-life [5]: 5.5 min

Compound: Cc1c(O)cc2c(c1C)O[C@](C)(CCCC(C)CCCC(C)CCCC(C)C)CC2 (some centres undefined)
- Activity (Mus musculus [1]): inactive

Compound: CNCCOc1cc(C)c2c(c1)CC[C@@](C)(CC/C=C(\C)CC/C=C(\C)CCC=C(C)C)O2
- Activity (Mus musculus [2]): Active

Compound: CC(C)=CCC/C(C)=C/CC/C(C)=C/CC[C@]1(C)CCc2cc(OCC(=O)O)cc(C)c2O1
- Activity (Mus musculus [2]): Active

Compound: CC(C)=CCC/C(C)=C/CC/C(C)=C/CC[C@]1(C)CCc2cc(OC(=O)CCCCC(=O)O)cc(C)c2O1
- Activity (Mus musculus [2]): Active
- survival at 100 mg/kg (Mus musculus [3]): 70%
- half-life [5]: 2.1 min

Compound: Cc1cc(O)c(C)c2c1O[C@](C)(CCCC(C)CCCC(C)CCCC(C)C)CC2 (some centres undefined)
- Activity (Mus musculus [1]): inactive

Compound: CCCC(CCC)C(=O)Oc1cc(C)c2c(c1)CC[C@@](C)(CC/C=C(\C)CC/C=C(\C)CCC=C(C)C)O2
- Activity (Mus musculus [2]): Active

Compound: CC(C)=CCC/C(C)=C/CC/C(C)=C/CC[C@]1(C)CCc2cc(OCCCO)cc(C)c2O1
- Activity (Mus musculus [2]): Active
- survival at 100 mg/kg (Mus musculus [3]): 70%
- Activity (Mus musculus [4]): 80%

Compound: CC(C)=CCC/C(C)=C/CC/C(C)=C/CC[C@]1(C)CCc2cc(OC(=O)/C=C/C(=O)O)cc(C)c2O1
- Activity (Mus musculus [2]): Active
- survival at 100 mg/kg (Mus musculus [3]): 70%
- survival at 100 mg/kg (Mus musculus [4]): 90%
- half-life [5]: 24.1 min

Compound: CC(C)=CCC/C(C)=C/CC/C(C)=C/CC[C@]1(C)CCc2cc(OCCCCC(=O)O)cc(C)c2O1
- Activity (Mus musculus [2]): Active

Compound: Cc1cc(O)cc2c1O[C@](C)(CCCC(C)CCCC(C)CCCC(C)C)CC2 (some centres undefined)
- Activity (Mus musculus [1]): inactive

Compound: CC(C)=CCC/C(C)=C/CC/C(C)=C/CC[C@]1(C)CCc2cc(OC(=O)C3CCN(C)CC3)cc(C)c2O1
- Activity (Mus musculus [2]): Active

Compound: CC(C)=CCC/C(C)=C/CC/C(C)=C/CC[C@]1(C)CCc2cc(OC(=O)CN(C)C)cc(C)c2O1
- Activity (Mus musculus [2]): Active
- survival at 100 mg/kg (Mus musculus [3]): 70%

Compound: CC(C)=CCC/C(C)=C/CC/C(C)=C/CC[C@]1(C)CCc2cc(OC(=O)c3cccnc3)cc(C)c2O1
- Activity (Mus musculus [2]): Active

Compound: CC(C)=CCC/C(C)=C/CC/C(C)=C/CC[C@]1(C)CCc2cc(OCCN(C)C)cc(C)c2O1
- Activity (Mus musculus [2]): Active

Compound: CC(C)=CCC/C(C)=C/CC/C(C)=C/CC[C@]1(C)CCc2cc(OC(=O)CCC(N)=O)cc(C)c2O1
- Activity (Mus musculus [2]): Active

Compound: CC(C)=CCC/C(C)=C/CC/C(C)=C/CC[C@]1(C)CCc2cc(OCCCCCO)cc(C)c2O1
- Activity (Mus musculus [2]): Active

Compound: CC(C)=CCC/C(C)=C/CC/C(C)=C/CC[C@]1(C)CCc2cc(OC(=O)CC(C)(C)C(=O)O)cc(C)c2O1
- Activity (Mus musculus [2]): Active
- survival at 100 mg/kg (Mus musculus [3]): 70%

Compound: CC(C)=CCC/C(C)=C/CC/C(C)=C/CC[C@]1(C)CCc2cc(OCCN)cc(C)c2O1
- Activity (Mus musculus [2]): Active

Compound: CC(C)=CCC/C(C)=C/CC/C(C)=C/CC[C@]1(C)CCc2c(C)c(O)cc(C)c2O1
- Activity (Mus musculus [2]): Active

Compound: CC(C)=CCC/C(C)=C/CC/C(C)=C/CC[C@]1(C)CCc2cc(OC(=O)c3ccncc3)cc(C)c2O1
- Activity (Mus musculus [2]): Active

Compound: CC(C)=CCC/C(C)=C/CC/C(C)=C/CC[C@]1(C)CCc2cc(O)c(C)c(C)c2O1
- Activity (Mus musculus [2]): Active

Compound: CC(C)=CCC/C(C)=C/CC/C(C)=C/CC[C@]1(C)CCc2cc(OCCC(=O)O)cc(C)c2O1
- Activity (Mus musculus [2]): Active

From ChEMBL document CHEMBL6087386, “Radioprotective effectiveness of a novel delta-tocotrienol prodrug on mouse hematopoietic system against 60Co gamma-ray irradiation through inducing granulocyte-colony stimulating factor production” (Eur J Med Chem, 2024)
